System: S. aureus (UAMS-1)
Experiment: Osteomyelitis model in New Zealand White rabbits
Type: in vivo
Conditions: rabbit radius defect, 3 weeks, H&E
Experimental: This animal model was approved by the IACUC at the University of Arkansas Medical Sciences with all appropriate measures taken to minimize pain and discomfort. This in vivo model is an adaptation of the work by Smeltzer et al J Orthop Res, 1997 15(3):414-21. Female New Zealand White rabbits weighing 2-3 kg were divided into 5 groups (n=6/group) including the following: no treatment control, a hollow PMMA (Orthoset, MicroPort Memphis, TN) cylinder with amikacin and vancomycin (approximately 15 mg/implant), a vancomycin sprinkle of 10 mg, the Ch-PEG paste, and the ChMPEG paste. Rabbits were anesthetized with 1-2 cc of a xylazine/ketamine mixture intramuscularly for a dose range of […] xylazine and 30-40 mg/kg ketamine. Rabbits were maintained on isoflurane administered by nose cone to produce surgical anesthesia and monitored by a veterinary technician. The right forelimb of each rabbit was shaved and prepped using a betadine scrub and rinsed with 70% ethanol. An incision was made on the anterior surface of the right forelimb through the epidermis, musculature, and fascia until the radius was exposed. A 1 cm mid-radial segment was excised from the right radial bone using a miniature saw blade (Exakt, Oklahoma City, OK). […]

CN[C@H](CC(C)C)C(=O)N[C@H]1C(=O)N[C@@H](CC(N)=O)C(=O)N[C@H]2C(=O)N[C@H]3C(=O)N[C@H](C(=O)N[C@H](C(=O)O)c4cc(O)cc(O)c4-c4cc3ccc4O)[C@H](O)c3ccc(c(Cl)c3)Oc3cc2cc(c3O[C@@H]2O[C@H](CO)[C@@H](O)[C@H](O)[C@H]2O[C@H]2C[C@](C)(N)[C@H](O)[C@H](C)O2)Oc2ccc(cc2Cl)[C@H]1O [vancomycin powder, vancomycin]
inflammation in histological sections of bone in the defect: areas of high inflammatory cell presence | tissue growth / fill in the defect (histology): tissue fill within the defect

Source: patent US12447193B2, “Compositions and methods for prevention and treatment of infections” (The University of Memphis Research Foundation, priority 2019, dated 2025)
